pEC50: −log10 of the molar value. Where a name gives a salt, the structure may show the parent alone.
What was measured:
Type in all cases: cell-based
[1] = test system: human B cell lymphoblastoid cell line Ramos; assay: Caspase cascade activation in Ramos cells; conditions: 48 h, read-out: Caspase Activation Potency EC50 Ramos
[2] = test system: human hepatocellular carcinoma cell line SNU398; assay: Caspase cascade activation in SNU398 cells; conditions: 48 h, hydrochloride, read-out: Caspase activation Potency EC50 SNU398 (48 h)
Summary of the method: (§1)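 Cells were exposed to compound at 0.016 to 10 μM final for 24 h or 48 h at 37 °C. They were then lysed with 14 μM N-(Ac-DEVD)-N′-ethoxycarbonyl-R110 in lysolecithin/DTT/PIPES buffer pH 7.2 for 3 h at room temperature (ex 485/em 530 nm). EC50 came from a sigmoidal fit of net RFU relative to untreated control.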

[3] = test system: human breast cancer cell line T-47D; assay: Caspase cascade activation (DEVD-R110 fluorogenic substrate) in T-47D cells; conditions: T-47D cells, 48 h; hydrochloride; read-out: Caspase activation Potency EC50 T-47D (48 h)
Summary of the method: as §1

[4] = test system: human lymphoma cell line Raji; assay: Caspase cascade activation in Raji cells; conditions: 48 h, read-out: Caspase Activation Potency EC50 Raji
[5] = test system: breast cancer cell line SKBR3; assay: Caspase cascade activation in SKBR3 cells; conditions: Homo sapiens, SK-BR-3, 48 h, read-out: Caspase Activation Potency EC50 SKBR3
[6] = test system: human Burkitt's lymphoma cell line Namalwa; assay: Caspase cascade activation in Namalwa cells; conditions: Burkitts lymphoma cell, 48 h, read-out: Caspase Activation Potency EC50 Namalwa
[7] = test system: human colon carcinoma cell line HCT116; assay: Caspase cascade activation in HCT116 cells; conditions: 48 h, hydrochloride, read-out: Caspase activation Potency EC50 HCT116 (48 h)
Summary of the method: as §1

pEC50 [1]: 6.76
pEC50 [2]: 6.62
pEC50 [3]: 6.62
pEC50 [4]: 6.40
pEC50 [5]: 6.82
pEC50 [6]: 6.69
pEC50 [7]: 6.36
SMILES: COc1cc(Nc2ncnc3ccsc23)cc(N(C)C)c1 [Example 70, N-(3-Dimethylamino-5-methoxyphenyl)thieno[3,2-d]pyrimidin-4-amine hydrochloride]

Source: patent US20070099877A1, “N-aryl-thienopyrimidin-4-amines and analogs as activators of caspases and inducers of apoptosis and the use thereof” (Cytovia, Inc., priority 2005, published 2007)
